According to ChEMBL document CHEMBL3638904, “Pyridine-2-derivatives as smoothened receptor modulators” (2015):

Biological target: Protein smoothened (Homo sapiens, UniProt Q99835)
Test: Radioligand Competition Binding Assay: For the binding competition assay, 100 μL of Assay Buffer was added to all the wells of a 96 well GF/B filter plate (Millipore MultiScreen-HTS-FB cat# MSFBN6B50) for 10 minutes to pre-wet the filter prior to evacuation of the buffer (8 inches Hg for 8 seconds). To the pre-wet wells is added: 20 μL of Assay Buffer, 10 μL diluted test agent, 20 μL of a tritiated Smo antagonist (15 nM stock solution), and 50 μL of membrane preparation (40 μg total protein per well). The plates are sealed and mixed at room temperature for 5 min, incubated at room temperature for 2 hours, then washed 5 times with 100 μL/each of wash buffer and vacuum dried for 8 seconds at 8 inches Hg. The plate is then dried for one hour in a 60° C. oven prior to the addition of 45 μL of Microscint 20 (Packard, #6013621) to each well and incubation at RT for 30 minutes to 1 hour. The plate is counted in a TopCount scintillation counter (Perkin Elmer).

Protein smoothened, sequence (Q99835 whole entry): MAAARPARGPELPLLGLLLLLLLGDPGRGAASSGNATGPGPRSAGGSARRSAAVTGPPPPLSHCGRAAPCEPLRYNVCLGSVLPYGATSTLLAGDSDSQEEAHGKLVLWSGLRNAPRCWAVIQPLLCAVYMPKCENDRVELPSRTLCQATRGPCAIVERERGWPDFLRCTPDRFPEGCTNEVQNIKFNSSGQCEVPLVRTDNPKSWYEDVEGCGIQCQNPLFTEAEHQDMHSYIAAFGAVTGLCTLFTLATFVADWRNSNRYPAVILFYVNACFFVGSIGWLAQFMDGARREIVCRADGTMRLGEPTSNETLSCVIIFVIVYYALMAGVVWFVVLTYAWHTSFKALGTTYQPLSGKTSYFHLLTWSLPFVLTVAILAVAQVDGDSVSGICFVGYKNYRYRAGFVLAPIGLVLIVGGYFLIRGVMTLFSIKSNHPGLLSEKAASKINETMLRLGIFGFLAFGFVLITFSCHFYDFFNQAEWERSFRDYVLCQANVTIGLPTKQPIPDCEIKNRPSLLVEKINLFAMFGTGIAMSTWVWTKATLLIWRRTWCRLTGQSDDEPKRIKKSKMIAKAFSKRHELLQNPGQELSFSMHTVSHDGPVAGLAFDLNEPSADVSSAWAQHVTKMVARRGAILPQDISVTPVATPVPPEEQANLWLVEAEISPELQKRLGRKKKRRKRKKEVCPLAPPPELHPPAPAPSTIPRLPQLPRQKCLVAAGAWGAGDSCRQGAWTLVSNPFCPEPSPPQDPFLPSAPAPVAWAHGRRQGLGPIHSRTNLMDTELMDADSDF

SMILES | IC50 [nM]
Cc1cccnc1-c1cc(N2CCN(c3ncc(Br)cn3)CC2)ncc1Cl | 40.3
Cc1cccnc1-c1cc(N2[C@@H]3CC[C@H]2CN(C(=O)CC(C)(C)O)C3)ncc1Cl | 92.2
Cc1cc(F)cnc1-c1cc(N2CCN(C(=O)CCS(C)(=O)=O)CC2)ncc1Cl | 7.11

More lines, now with the values ahead:

IC50 [nM] | SMILES
110 | O=C(CCO)NC1CCN(c2ccc(Cl)c(-c3ccccn3)n2)CC1
16.5 | O=S(=O)(NC1CCN(c2ccc(Cl)c(-c3ccccn3)n2)CC1)C1CC1
22.5 | Cc1ccc(-c2nc(N3CCN(C(=O)CCS(C)(=O)=O)CC3)ccc2Cl)nc1
